{
  "source": "patent US20210260069A1",
  "about": "“IRE1a INHIBITOR IN COMBINATION WITH CANCER [sequence] AGENT FOR CANCER TREATMENT” (Fosun Orinove PharmaTech, Inc., priority 2018, published 2021)",
  "key": {"[1]": {"molecular_target": "T1, IRE1α (Mus musculus, UniProt Q9EQY0)", "T1 construct": "from tissue; host or cells: liver of BALB/c mice (in vivo)", "T1 sequence (Q9EQY0 21-977)": "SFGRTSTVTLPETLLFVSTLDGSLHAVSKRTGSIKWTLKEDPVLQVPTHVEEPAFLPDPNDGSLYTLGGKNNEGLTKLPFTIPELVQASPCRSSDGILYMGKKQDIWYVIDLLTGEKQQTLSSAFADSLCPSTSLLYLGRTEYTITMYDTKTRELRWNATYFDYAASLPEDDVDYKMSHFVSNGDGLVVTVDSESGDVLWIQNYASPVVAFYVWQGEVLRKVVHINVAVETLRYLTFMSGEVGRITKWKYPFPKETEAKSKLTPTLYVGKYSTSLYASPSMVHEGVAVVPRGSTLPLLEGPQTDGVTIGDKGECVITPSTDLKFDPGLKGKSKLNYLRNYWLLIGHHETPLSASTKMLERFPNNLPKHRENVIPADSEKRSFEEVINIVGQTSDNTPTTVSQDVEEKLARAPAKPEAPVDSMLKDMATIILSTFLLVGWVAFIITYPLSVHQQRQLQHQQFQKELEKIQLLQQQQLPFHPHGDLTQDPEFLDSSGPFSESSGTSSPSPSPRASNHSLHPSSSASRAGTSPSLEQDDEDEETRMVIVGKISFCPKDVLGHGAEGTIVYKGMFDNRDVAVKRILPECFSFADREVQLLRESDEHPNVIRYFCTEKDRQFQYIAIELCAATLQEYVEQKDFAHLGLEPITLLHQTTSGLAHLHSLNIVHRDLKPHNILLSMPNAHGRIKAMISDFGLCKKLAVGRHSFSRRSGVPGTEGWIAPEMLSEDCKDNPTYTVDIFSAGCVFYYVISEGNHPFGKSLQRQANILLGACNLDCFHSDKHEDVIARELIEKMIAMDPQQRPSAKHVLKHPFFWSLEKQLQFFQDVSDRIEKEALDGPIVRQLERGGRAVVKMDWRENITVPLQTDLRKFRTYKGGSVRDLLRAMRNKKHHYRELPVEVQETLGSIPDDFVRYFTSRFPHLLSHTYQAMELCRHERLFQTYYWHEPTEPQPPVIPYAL", "test": "Liver PD screening assay: XBP-1 splicing analysis of liver after tunicamycin (Example 25)", "type": "in vivo, BALB/c mice", "protocol": "Example 25 was related to comparative PD/PK data of Orin 1001 VS compound 4315, as its structure shown below, which is an earlier lead of this series of compounds. Tunicamycin was used herein to activate IRE1, then Orin 1001 (also called 4485) or 4315 were given to inhibit the activating effect. […] Each gel panel represents one mouse liver sample as in the figure.\nBALB/c mice were injected intraperitoneally with 100 microliters at an equivalent dose of 1 mg/kg tunicamycin solution. Two hours after tunicamycin injection, mice were dosed with compound of interest either PO or IV. Following 2 hours for PO delivery of compound, mice were euthanized according to IACUC protocols using CO2 from a […] source. A 1 cm^3 fragment of the liver for homogenization and extraction of the RNA were collected for further analysis. Total RNA is harvested from cells or tissue using TRIzol according to the manufacturer's procedures. After ethanol precipitation and resuspension of the RNA, RiboGreen (Invitrogen) is used to quantify the yield and normalize the RNA concentration in the source tube containing isolated RNA. RT-PCR is performed by Oligo(dT) priming, and SuperScript II (Invitrogen) transcription using the Amplitaq Gold Kit (Applied Biosystems) according to the manufacturer's protocols. Primers for human XBP-1 are 5_-[…]-3_ (forward, Seq ID No. 8) and 5_-[…]-3_ (reverse, Seq ID No. 9), and for mouse are 5_-[…]-3_ (forward, Seq ID No. 10) and 5_-[…]-3 (Seq ID No. 11). All DNA oligos were purchased from IDT DNA Technologies. PCR is run on a Bio-Rad PTC-100 96-well thermocycler with heating at 94° C. for 30 s, annealing at 58° C. for 30 s, and polymerizing at 72° C. for 30 s for 35 cycles. Reactions are run on 4% precast NuSieve gels from Cambrex and visualized by ethidium bromide staining and UV excitation.\n(§1) All PK experiments are standard tests that performed in either WuXi PharmaTech or Charels River Laboratory. 4315 and 4485 (Orin 1001) were dosed PO as a suspension in 1% microcellulose (Sigma) and 50% Sucrouse (Sigma)."}, "[2]": {"test": "Oral bioavailability test, rat", "settings": "in vivo, 10 mg/kg dose", "protocol": "as §1"}, "[3]": {"test": "Oral bioavailability test, dog", "settings": "in vivo, 10 mg/kg dose", "protocol": "as §1"}, "[4]": {"test": "Oral bioavailability test, mouse", "settings": "in vivo, 5 mg/kg dose", "protocol": "as §1"}},
  "note": "Where two headings read alike, the source gives them in different places.",
  "data": [
    {"molecule": "Cc1c(-c2ccc(C(=O)NCCN3CCOCC3)cc2)c(=O)oc2c(C=O)c(O)ccc12", "note": "[compound 4315]", "values": [
      {"measurement": "ED50", "setting": "[1]; read-out: ED50 (inhibition of XBP-1 splicing in liver), PO, 2 hours after tunicamycin 1 mg/kg ip, liver 2 hours after dosing, FIG. 23", "result": "> 10", "unit": "mg/kg"},
      {"measurement": "ED50", "setting": "[1]; read-out: ED50 (inhibition of XBP-1 splicing in liver), separate experiment", "result": 50, "unit": "mg/kg"},
      {"measurement": "bioavailability", "setting": "[2]", "result": 36, "unit": "%"},
      {"measurement": "bioavailability", "setting": "[3]", "result": 17, "unit": "%"},
      {"measurement": "bioavailability", "setting": "[4]", "result": 23, "unit": "%"}
    ]}
  ]
}
